Among the data in US5599937A, “Heteroaromatic quinuclidinenes, their use and preparation” (Pharmacia AB, priority 1992, dated 1997) are Kb and Emax values, retold here.

The target of one assay is T1, smooth muscle strips of the urinary bladder (Cavia porcellus, UniProt H0W1Z3).
T1 construct: Smooth muscle strips of the urinary bladder and ileum (longitudinal muscle only) were dissected; from tissue; host or cells: guinea pig urinary bladder smooth muscle strips
T1 sequence (H0W1Z3 1-590): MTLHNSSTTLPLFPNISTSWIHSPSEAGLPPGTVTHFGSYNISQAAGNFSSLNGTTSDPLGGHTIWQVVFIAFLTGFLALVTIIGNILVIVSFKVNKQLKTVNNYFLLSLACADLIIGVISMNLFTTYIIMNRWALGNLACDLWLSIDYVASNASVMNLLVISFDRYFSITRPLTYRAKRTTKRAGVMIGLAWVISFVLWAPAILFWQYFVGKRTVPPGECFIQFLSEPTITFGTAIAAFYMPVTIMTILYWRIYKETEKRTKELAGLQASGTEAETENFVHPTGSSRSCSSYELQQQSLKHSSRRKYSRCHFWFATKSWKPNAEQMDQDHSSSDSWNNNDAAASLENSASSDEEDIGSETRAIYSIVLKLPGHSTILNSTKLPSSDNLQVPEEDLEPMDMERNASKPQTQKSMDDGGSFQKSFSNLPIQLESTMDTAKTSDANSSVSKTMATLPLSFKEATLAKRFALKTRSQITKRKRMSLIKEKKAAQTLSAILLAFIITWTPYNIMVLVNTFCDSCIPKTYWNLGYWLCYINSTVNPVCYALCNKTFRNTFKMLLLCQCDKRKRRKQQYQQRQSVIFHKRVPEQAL
Put plainly: Functional in vitro study: antimuscarinic activity (antagonism of carbachol contraction) on urinary bladder strips. The arrangement: species or system guinea pig.
Conditions: not given
As for the experimental part:
(§1) Male guinea pigs, weighing about 300 g, were killed by a blow on the neck and exsanguinated. Smooth muscle strips of the urinary bladder and ileum (longitudinal muscle only) were dissected in a Krebs-Henseleit solution (pH 7.4). The strip preparations were then vertically mounted between two hooks in thermostatically controlled (37° C.) organ baths (5 mL). One of the hooks was adjustable and connected to a force transducer (FT 03, Grass Instruments). The Krebs-Henseleit solution was continuously bubbled with carbogen gas (93.5% O2 /6.5% CO2) to maintain pH at 7.4. Isometric tension was recorded by a Grass Polygraph (model 79D). A resting tension of approximately 5 mN was initially applied on each muscle strip and the preparations were allowed to stabilize for at least 45 min. The resting tension was repeatedly adjusted and the preparations were washed several times during the stabilization period.
The urinary bladder strips were used for evaluation of antimuscarinic activity and the ileal preparations for studies of muscarinic activity. Carbachol (carbamylcholine chloride) was used as the standard agonist. Concentration-response curves to agonists were generated either by the cumulative dose-response technique (bladder strip) or by the addition of single agonist concentrations (ileal preparations). In the latter case, the preparations were washed and allowed to rest between each concentration of agonist. EC50 values were graphically determined.
In studies of antagonism, a control concentration-response curve to carbachol was generated by cumulative addition of carbachol to the bladder strip (i.e., stepwise increase of the agonist concentration until the maximal contractile response was reached), followed by washing out and a resting period of at least 15 min. before a fix concentration of the test compound (antagonist) was added to the organ-bath. After 60 min. of incubation, a second cumulative concentration-response curve to carbachol was generated. Responses were expressed as percent of the maximal response to carbachol. EC50 -values for carbachol in the absence (control) and presence of antagonist were graphically derived and dose ratios (r) were calculated. Dissociation constants, Kb, for the antagonists were then calculated using the following equation (1), where [A] is the concentration of test compound.
What is called Kb is the affinity of an antagonist, worked out from how it opposes an agonist. In turn, `Cc1ccc(C2(O)CN3CCC2CC3)s1` (stereo not drawn) [Example 6, 3-(5-Methylthienyl)quinuclidin-3-ol] showed a Kb of 23000 nM. `Cc1ccc(C2(O)CN3CCC2CC3)o1` (stereo not drawn) [Example 4, 3-(5-Methyl-2-furyl)quinuclidin-3-ol] came in with a Kb of 1200 nM. The compound `CCc1ccc(C2(O)CN3CCC2CC3)o1` (stereo not drawn) [Example 8, 3-(5-Ethyl-2-furyl)quinuclidin-3-ol] gave a Kb of 6700 nM.

Staying with this assay, now noted: read-out: Kb (dissociation constant for the antagonist).
In the case of `Cc1ccc(C2=CN3CCC2CC3)s1` [Example 19, 3-(5-methyl-2-thienyl)quinuclidin-2-ene], the Kb is 320 nM. On the same count and under the same terms, then `C1=C(c2occc2-c2ccccc2)C2CCN1CC2` [Example 27, 3-(3-Phenylfuran-2-yl)quinuclidin-2-ene], with 2.7 nM. In the case of `CCc1ccc(C2=CN3CCC2CC3)o1` [Example 21, 3-(5-Ethyl-2-furyl)quinuclidin-2-ene], the Kb is 31 nM. On the same count and under the same terms, then `COC(=O)c1ccc(C2=CN3CCC2CC3)o1` [Example 31, 3-(2-Methoxycarbonyl-5-furyl)-quinuclidin-2-ene], with 2600 nM; and `Cc1ccc(C2=CN3CCC2CC3)o1` [Example 17, 3-(5-Methyl-2-furyl)quinuclidin-2-ene], with 61 nM; and `C1=C(c2ccc(-c3ccccc3)o2)C2CCN1CC2` [Example 29, 3-(5-Phenylfuran-2-yl)quinuclidin-2-ene], with 1020 nM.

Still in this assay, the particulars now being: read-out: Kb (dissociation constant for the antagonist); guinea pig urinary bladder strip; antagonism of carbachol; 60 min incubation; Kb=[A]/r-1.
For the compound `OC1(c2occc2Br)CN2CCC1CC2` (stereo not drawn) [Example 7, 3-(3-Bromo-2-furyl)quinuclidin-3-ol], the Kb was determined as 11000 nM.

For a further assay, the system named is ileum (longitudinal muscle). Put plainly: Functional in vitro study: muscarinic (agonistic) activity on ileal preparations. The settings on record: Cavia porcellus, guinea pig ileum, read-out: agonistic effect on ileum in relation to maximal carbachol response (Emax). As for the experimental part: as §1
The urinary bladder strips were used for evaluation of antimuscarinic activity and the ileal preparations for studies of muscarinic activity. Carbachol (carbamylcholine chloride) was used as the standard agonist. Concentration-response curves to agonists were generated either by the cumulative dose-response technique (bladder strip) or by the addition of single agonist concentrations (ileal preparations). […] EC50 values were graphically determined. […]
By Emax is commonly meant the greatest response seen or fitted, relative to the assay's reference. As for `Cc1ccc(C2=CN3CCC2CC3)s1` [Example 19, 3-(5-methyl-2-thienyl)quinuclidin-2-ene], the Emax at 500 µM came to 10%. Same read-out and setting: then `COC(=O)c1ccc(C2=CN3CCC2CC3)o1` [Example 31, 3-(2-Methoxycarbonyl-5-furyl)-quinuclidin-2-ene], with 21%.
